Biological target: T1, small-conductance Ca2+-activated K+ channels (SK channels, subtype 2) (Homo sapiens, UniProt Q9H2S1)
T1 construct: expressed in transfected cells; host or cells: HEK293
Assay: whole-cell patch-clamp of ionic current through SK2 channels in HEK293 cells (SC100)
Type: cell-based
Conditions: whole-cell patch-clamp, HEK293 cells expressing SK2 channels; concentration that increases the basal current by 100%
Summary of the method: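 Whole-cell patch-clamp recording of current in HEK293 cells expressing SK2 channels. SC100 is the compound concentration that increases basal current by 100%.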

| Structure (SMILES) | SC100 (μM) |
| --- | --- |
| CC(=O)c1cc(NC2CCC(F)(F)CC2)nc(-c2nc(C)cs2)n1 [IN11030-054-P1, 1-(6-((4,4-difluorocyclohexyl)amino)-2-(4-methylthiazol-2-yl)pyrimidin-4-yl) ethan-1-one] | + (+ means >1 uM) |
| COc1cccc2c(NC3CCC(F)(F)CC3)nc(-c3nc(C)cs3)nc12 [IN11030-081-P1, N-(4,4-difluorocyclohexyl)-8-methoxy-2-(4-methylthiazol-2-yl) quinazolin-4-amine] | ++ (++ means 200 nM-1000 nM) |
| Cc1csc(-c2nc(NC3CCC(F)(F)CC3)cc(C(C)(C)O)n2)n1 [IN11030-083-P1, 2-(6-((4,4-difluorocyclohexyl)amino)-2-(4-methylthiazol-2-yl)pyrimidin-4-yl) propan-2-ol] | ++ (++ means 200 nM-1000 nM) |
| Cc1ccn(-c2nc(NC3CCC(F)(F)CC3)cc(OCCC#N)n2)n1 [IN11030-095-P1] | + (+ means >1 uM) |
| Cc1ccn(-c2cc(COC(=O)N(C)C)cc(NC3CCC(F)(F)CC3)n2)n1 [IN11039-006-P1] | +++ (+++ means <200 nM) |
| COC(=O)NCCOc1cc(NC2CCC(F)(F)CC2)nc(-c2nc(C)cs2)n1 [IN11039-009-P1] | ++ (++ means 200 nM-1000 nM) |
| COCCN(C)Cc1cc(NC2CCC(F)(F)CC2)nc(-n2ccc(C)n2)c1 [IN11039-017-P1] | ++ (++ means 200 nM-1000 nM) |
| Cc1ccn(-c2cc(COC3CCCNC3)cc(NC3CCC(F)(F)CC3)n2)n1 (stereo not shown) [IN11039-019-P1, N-(4,4-difluorocyclohexyl)-6-(3-methyl-1H-pyrazol-1-yl)-4-((piperidin-3-yloxy)methyl)pyridin-2-amine] | +++ (+++ means <200 nM) |
| Cc1ccn(-c2cc3ccccc3c(NC3CCC(F)(F)CC3)n2)n1 [IN11039-023-P1, N-(4,4-difluorocyclohexyl)-3-(3-methyl-1H-pyrazol-1-yl)isoquinolin-1-amine] | + (+ means >1 uM) |
| CNCc1cc(NC2CCC(F)(F)CC2)nc(-n2ccc(C)n2)c1 [IN11039-026-P1] | ++ (++ means 200 nM-1000 nM) |
| Cc1ccn(-c2cc3c(c(NC4CCC(F)(F)CC4)n2)CCCC3)n1 [IN11039-036-P1, N-(4,4-difluorocyclohexyl)-3-(3-methyl-1H-pyrazol-1-yl)-5,6,7,8-tetrahydro isoquinolin-1-amine] | + (+ means >1 uM) |
| COc1nc(-c2nc(C)cs2)nc(NC2CCC(F)(F)CC2)c1F [IN11039-058-P1, N-(4,4-difluorocyclohexyl)-5-fluoro-6-methoxy-2-(4-methylthiazol-2-yl)pyrimidin-4-amine] | ++ (++ means 200 nM-1000 nM) |
| Cc1ccn(-c2cc(COc3ncccc3C(C)O)cc(NC3CCC(F)(F)CC3)n2)n1 (stereo not shown) [IN11039-066-P1] | +++ (+++ means <200 nM) |
| Cc1ccn(-c2cc(COc3ncccc3C(C)(C)O)cc(NC3CCC(F)(F)CC3)n2)n1 [IN11039-069-P1] | +++ (+++ means <200 nM) |
| Cc1csc(-c2nc(NC3CCC(F)(F)CC3)c(O)c(=O)[nH]2)n1 [IN11039-094-P1, 6-((4,4-difluorocyclohexyl)amino)-2-(4-methylthiazol-2-yl) pyrimidine-4,5-diol] | + (+ means >1 uM) |
| COc1cc(NC2CCC(F)(F)CC2)nc(-n2ccc(C)n2)n1 [IN11053-005-P1] | + (+ means >1 uM) |
| COCc1cc(NC2CCC(F)(F)CC2)nc(-n2ccc(C)n2)n1 [IN11053-007-P1, N-(4,4-difluorocyclohexyl)-6-(methoxymethyl)-2-(3-methyl-1H-pyrazol-1-yl)pyrimidin-4-amine] | + (+ means >1 uM) |
| Cc1ccn(-c2nc(COc3ccc(C#N)cn3)cc(NC3CCC(F)(F)CC3)n2)n1 [IN11053-013-P1] | ++ (++ means 200 nM-1000 nM) |
| Cc1ccn(-c2nc(NC3CCC(F)(F)CC3)cc(OC(C)C)n2)n1 [IN11053-021-P1] | + (+ means >1 uM) |
| Cc1ccn(-c2nc(NC3CCC(F)(F)CC3)cc(OCc3ncco3)n2)n1 [IN11053-022-P1] | + (+ means >1 uM) |
| Cc1ccn(-c2nc(NC3CCC(F)(F)CC3)cc(OCc3cocn3)n2)n1 [IN11053-024-P1] | + (+ means >1 uM) |
| COC(=O)NCc1cc(NC2CCC(F)(F)CC2)nc(-n2ccc(C)n2)n1 [IN11053-033-P1, methyl ((6-((4,4-difluorocyclohexyl)amino)-2-(3-methyl-1H-pyrazol-1-yl)pyrimidin-4-yl)methyl) carbamate] | + (+ means >1 uM) |
| Cc1ccn(-c2nc(COc3ccc(C(N)=O)nn3)cc(NC3CCC(F)(F)CC3)n2)n1 [IN11053-046-P1] | +++ (+++ means <200 nM) |
| C=Cc1cc(NC2CCC(F)(F)CC2)nc(-n2ccc(C)n2)n1 [IN11053-052-P1] | ++ (++ means 200 nM-1000 nM) |
| CC(=O)c1cc(NC2CCC(F)(F)CC2)nc(-n2ccc(C(F)(F)F)n2)n1 [IN11053-059-P1, 1-(6-((4,4-difluorocyclohexyl)amino)-2-(3-(trifluoromethyl)-1H-pyrazol-1-yl)pyrimidin-4-yl)ethan-1-one] | + (+ means >1 uM) |

| Structure (SMILES) | SC100 (μM) |
| --- | --- |
| OCc1cc(NC2CCC(F)(F)CC2)nc(-n2ccc(C(F)(F)F)n2)n1 [IN11053-060-P1, (6-((4,4-difluorocyclohexyl)amino)-2-(3-(trifluoromethyl)-1H-pyrazol-1-yl)pyrimidin-4-yl) methanol] | ++ (++ means 200 nM-1000 nM) |
| CC(O)c1cc(NC2CCC(F)(F)CC2)nc(-n2ccc(C(F)(F)F)n2)n1 (stereo not shown) [IN11053-062-P1, 1-(6-((4,4-difluorocyclohexyl)amino)-2-(3-(trifluoromethyl)-1H-pyrazol-1-yl)pyrimidin-4-yl)ethan-1-ol] | + (+ means >1 uM) |
| COCc1cc(NC2CCC(F)(F)CC2)nc(-n2ccc(C(F)(F)F)n2)n1 [IN11053-071-P1, N-(4,4-difluorocyclohexyl)-6-(methoxymethyl)-2-(3-(trifluoromethyl)-1H-pyrazol-1-yl)pyrimidin-4-amine] | + (+ means >1 uM) |
| COC(C)c1cc(N(C)C2CCC(F)(F)CC2)nc(-n2ccc(C(F)(F)F)n2)n1 (stereo not shown) [IN11053-073-P1, N-(4,4-difluorocyclohexyl)-6-(1-methoxyethyl)-N-methyl-2-(3-(trifluoromethyl)-1H-pyrazol-1-yl)pyrimidin-4-amine] | + (+ means >1 uM) |
| COC(C)c1cc(NC2CCC(F)(F)CC2)nc(-n2ccc(C(F)(F)F)n2)n1 (stereo not shown) [IN11053-076-P1, N-(4,4-difluorocyclohexyl)-6-(1-methoxyethyl)-2-(3-(trifluoromethyl)-1H-pyrazol-1-yl)pyrimidin-4-amine] | + (+ means >1 uM) |
| Cc1ccn(-c2cc(C(C)OC(=O)N(C)C)cc(NC3CCC(F)(F)CC3)n2)n1 (stereo not shown) [IN11054-003-P1, 1-(2-((4,4-difluorocyclohexyl)amino)-6-(3-methyl-1H-pyrazol-1-yl)pyridin-4-yl)ethyl dimethylcarbamate] | ++ (++ means 200 nM-1000 nM) |
| COC(=O)NC(C)c1cc(NC2CCC(F)(F)CC2)nc(-n2ccc(C)n2)c1 (stereo not shown) [IN11054-005-P1, methyl (1-(2-((4,4-difluorocyclohexyl)amino)-6-(3-methyl-1H-pyrazol-1-yl)pyridin-4-yl)ethyl) carbamate] | + (+ means >1 uM) |
| Cc1ccn(-c2nc(NC3CCC(F)(F)CC3)cc(OCC(F)(F)F)n2)n1 [IN11054-011-P1] | + (+ means >1 uM) |
| Cc1ccn(-c2nc(NC3CCC(F)(F)CC3)cc(OCc3cnco3)n2)n1 [IN11054-012-P1] | ++ (++ means 200 nM-1000 nM) |
| Cc1ccn(-c2cc(NC3CCC(F)(F)CC3)nc(-n3ccc(C)n3)c2)n1 [IN11054-030-P1, N-(4,4-difluorocyclohexyl)-4,6-bis(3-methyl-1H-pyrazol-1-yl)pyridin-2-amine] | + (+ means >1 uM) |
| COc1cc(NC2CCC(F)(F)CC2)nc(-n2nc(C)cc2C)c1 [IN11054-038-P1] | + (+ means >1 uM) |
| CSc1cc(NC2CCC(F)(F)CC2)nc(-c2nc(C)cs2)n1 [IN11054-039-P1] | ++ (++ means 200 nM-1000 nM) |
| Cc1csc(-c2nc(NC3CCC(F)(F)CC3)cc(S(C)(=O)=O)n2)n1 [IN11054-046-P1] | + (+ means >1 uM) |
| Cc1csc(-c2nc(NC3CCC(F)(F)CC3)cc([S+](C)[O-])n2)n1 (stereo not shown) [IN11054-046-P2] | ++ (++ means 200 nM-1000 nM) |
| COc1cc(NC2CCC(F)(F)CC2)nc(-n2ccc(C)n2)c1 [IN11054-054-P1, N-(4,4-difluorocyclohexyl)-4-methoxy-6-(3-methyl-1H-pyrazol-1-yl)pyridin-2-amine] | ++ (++ means 200 nM-1000 nM) |
| Cc1cc(C)n(-c2cc(C)c(CNC3CCC(F)(F)CC3)nn2)n1 [IN11054-078-P1, N-((6-(3,5-dimethyl-1H-pyrazol-1-yl)-4-methylpyridazin-3-yl)methyl)-4,4-difluorocyclohexan-1-amine] | + (+ means >1 uM) |
| Cc1csc(-c2nc(NC3CCC(F)(F)CC3)cc(C3CCC3)n2)n1 [IN11054-081-P1, 6-cyclobutyl-N-(4,4-difluorocyclohexyl)-2-(4-methylthiazol-2-yl)pyrimidin-4-amine] | ++ (++ means 200 nM-1000 nM) |
| CCOc1cc(NC2CCC(F)(F)CC2)nc(-c2nc(C)cs2)n1 [IN11055-015-P1] | + (+ means >1 uM) |
| Cc1csc(-c2nc(NC3CCC(F)(F)CC3)cc(OC(C)C)n2)n1 [IN11055-016-P1] | + (+ means >1 uM) |
| COc1cc(NC2CCCCC2)nc(-n2nc(C)cc2C)n1 [IN11055-044-P1] | + (+ means >1 uM) |
| Cc1csc(-c2nc(NC3CCC(F)(F)CC3)cc(N(C)C)n2)n1 [IN11055-046-P1] | ++ (++ means 200 nM-1000 nM) |
| CNc1cc(NC2CCC(F)(F)CC2)nc(-c2nc(C)cs2)n1 [IN11055-049-P1] | ++ (++ means 200 nM-1000 nM) |
| COc1cc(NC2CCCC2)nc(-c2nc(C)cs2)n1 [IN11055-066-P1] | + (+ means >1 uM) |
| Cc1csc(-c2nc(N)cc(NC3CCC(F)(F)CC3)n2)n1 [IN11055-068-P1, N4-(4,4-difluorocyclohexyl)-2-(4-methylthiazol-2-yl)pyrimidine-4,6-diamine] | + (+ means >1 uM) |
